Measurements from US20080032953A1, “Method For Inhibiting Prebiotic Effect Of Food Proteins” (Royal Canin SA,, priority 2004, published 2008).

Legend:
aerobic microflora [1] = test: Growth of canine oral flora in artificial saliva with soya hydrolysate, with or without tripolyphosphate: aerobic count; format: cell-based, dog; conditions: for Aerobic microflora CFU/ml, 24 hours / Aerobic microflora CFU/ml, 48 hours: Experiment 6, canine flora
Experimental: (§1) For all the experiments, the bacterial microflora of the oral cavity was removed, kept in a conservation medium, and then cultured in artificial saliva according to the following protocol:
(§2) When subsequently used, each tube is thawed at ambient temperature and then incubated for 12 hours at 37° C., in a jar under CO2. The aerobic and anaerobic bacteria are counted according to the methods described hereinafter. The content of each tube is subsequently diluted with the sterile conservation medium so as to have an inoculum of 5000 (3.70 log10) revivable microorganisms in 0.2 ml.
(§3) The aerobic microflora is cultured and then counted on a trypticase soy medium (Biokar) incubated at 37° C. for 48 hours.
(§4) The basic artificial saliva is prepared according to table 31 on page 244 of the manual Biological Handbooks—Metabolism, compiled and edited by Philip L. Altman and Dorothy S. Dittmer, published by Federation of American Societies for Experimental Biology, 1968.
(§5) This basic saliva is supplemented with L-cysteine at a rate of 0.5 g/liter in order to lower its redox potential so as to be able to grow therein both the aerobic bacterial microflora and the anaerobic bacterial microflora. The whole will subsequently be referred to as “artificial saliva”.
(§6) The artificial saliva is dispensed into test tubes at a rate of 20 ml per tube. Each tube is supplemented or not supplemented with the protein, in the presence or absence of the phosphate to be tested. Each treatment is composed of two tubes.
(§7) The whole is autoclaved at 110° C. for 15 minutes.
(§8) Each tube is subsequently inoculated with 0.2 ml of inoculum described above. The whole is incubated in an incubator at 37° C., with shaking.
(§9) After 24, 48 or 72 hours of incubation, the aerobic flora and the anaerobic flora are counted according to the methods described above.
(§10) The result of each treatment is the mean of the counts of two test tubes, expressed as log10 of C.F.U. (Colony Forming Units) per ml of artificial saliva.
(§11) In this assay, the inhibitory effect of sodium tripolyphosphate incorporated at 0, 0.5, 1, 1.5 and 2%, on the prebiotic effect of a dehydrated soya hydrolysate (Nurish 1500 IP, ND from Solea Company, having a titer of 83% of total nitrogenous matter) incorporated into the artificial saliva at 0.5 and at 1%, was tested.
(§12) In this assay, oral microflora taken from a dog were used.

anaerobic microflora [2] = test: Growth of canine oral flora in artificial saliva with soya hydrolysate, with or without tripolyphosphate: anaerobic count; format: cell-based, dog; conditions: for Anaerobic microflora CFU/ml, 24 hours / Anaerobic microflora CFU/ml, 48 hours: Experiment 6, canine flora
Experimental: as §1, §2
(§13) The anaerobic microflora is cultured and then counted on a Schaedler medium (Biokar) supplemented with 5% of sterile defibrinated sheep blood, incubated at 37° C., in a jar under CO2, for 48 hours.
as §4, §5, §6, §7, §8, §9, §10, §11, §12

aerobic microflora [3] = test: Growth of cat oral bacterial microflora in artificial saliva with protein, with or without phosphate: aerobic count; format: cell-based
Experimental: as §1
(§14) Two male cats of “European” race, weighing approximately 5.50 kg, were anesthetized with 0.3 ml of a solution of medetomidine at 0.085 g/100 ml (Domitor, ND) and 0.26 ml of a solution of ketamine at […] (Imalgene 1000, ND).
(§15) In each animal thus immobilized, the saliva was sterilely suctioned with a pipette and the base of the teeth, the gums and the gum pockets were scraped with the back of a sterile scalpel.
(§16) All the samples were transferred and well-diluted in 100 ml of a sterile conservation medium (thiocolate resazurin medium from Biokar supplemented with 25% of glycerol). The conservation medium containing the samples was transferred into tubes with microbeads (Cryobilles, ND from AES). These tubes were then incubated for 6 hours in an incubator at 37° C., in a jar under CO2, before being frozen for subsequent use.
as §2, §3, §4, §5, §6, §7, §8, §9, §10

anaerobic microflora [4] = test: Growth of cat oral bacterial microflora in artificial saliva with protein, with or without phosphate: anaerobic count; format: cell-based
Experimental: as §1, §14, §15, §16, §2, §13, §4, §5, §6, §7, §8, §9, §10

[5] = tripolyphosphate 0.5%, soya hydrolysate 0.5%
[6] = tripolyphosphate 0.5%, soya hydrolysate 1%
[7] = tripolyphosphate 1%, soya hydrolysate 0.5%
[8] = tripolyphosphate 1%, soya hydrolysate 1%
[9] = tripolyphosphate 1.5%, soya hydrolysate 0.5%
[10] = tripolyphosphate 1.5%, soya hydrolysate 1%
[11] = tripolyphosphate 2%, soya hydrolysate 0.5%
[12] = tripolyphosphate 2%, soya hydrolysate 1%
[13] = Experiment 6, soya hydrolysate 0.5 and 1%
[14] = Experiment 6, tripolyphosphate incorporation rates greater than or equal to 1%
[15] = Experiment 4, MP9007 1%, tripolyphosphate 0.5%
[16] = Experiment 4, MP9007 1%, tripolyphosphate 1%
[17] = Experiment 4, MP9007 1%, tripolyphosphate 1.5%
[18] = Experiment 4, MP9007 1%, tripolyphosphate 2%
[19] = Experiment 4, sodium tripolyphosphate 0.5-2%, MP9007 1%
[20] = Experiment 5, regardless of the amount incorporated (0.5-2%), soya hydrolysate 1%
[21] = Experiment 5, soya hydrolysate 1%, tripolyphosphate 0.5%
[22] = Experiment 5, soya hydrolysate 1%, tripolyphosphate 1%
[23] = Experiment 5, soya hydrolysate 1%, tripolyphosphate 1.5%
[24] = Experiment 5, soya hydrolysate 1%, tripolyphosphate 2%

O=P(O)(O)OP(=O)(O)OP(=O)(O)O [sodium tripolyphosphate]
Aerobic microflora CFU/ml, 24 hours (aerobic microflora [1]; [5]): 7.10 log10 CFU/ml
Aerobic microflora CFU/ml, 48 hours (aerobic microflora [1]; [5]): 7.54 log10 CFU/ml
Aerobic microflora CFU/ml, 24 hours (aerobic microflora [1]; [6]): 7.50 log10 CFU/ml
Aerobic microflora CFU/ml, 48 hours (aerobic microflora [1]; [6]): 7.51 log10 CFU/ml
Aerobic microflora CFU/ml, 24 hours (aerobic microflora [1]; [7]): <3 log10 CFU/ml
Aerobic microflora CFU/ml, 48 hours (aerobic microflora [1]; [7]): <3 log10 CFU/ml
Aerobic microflora CFU/ml, 24 hours (aerobic microflora [1]; [8]): <3 log10 CFU/ml
Aerobic microflora CFU/ml, 48 hours (aerobic microflora [1]; [8]): 3.17 log10 CFU/ml
Aerobic microflora CFU/ml, 24 hours (aerobic microflora [1]; [9]): <3 log10 CFU/ml
Aerobic microflora CFU/ml, 48 hours (aerobic microflora [1]; [9]): <3 log10 CFU/ml
Aerobic microflora CFU/ml, 24 hours (aerobic microflora [1]; [10]): <3 log10 CFU/ml
Aerobic microflora CFU/ml, 48 hours (aerobic microflora [1]; [10]): <3 log10 CFU/ml
Aerobic microflora CFU/ml, 24 hours (aerobic microflora [1]; [11]): <3 log10 CFU/ml
Aerobic microflora CFU/ml, 48 hours (aerobic microflora [1]; [11]): <3 log10 CFU/ml
Aerobic microflora CFU/ml, 24 hours (aerobic microflora [1]; [12]): <3 log10 CFU/ml
Aerobic microflora CFU/ml, 48 hours (aerobic microflora [1]; [12]): <3 log10 CFU/ml
Inhibition of the prebiotic effect of soya hydrolysate, canine aerobic oral microflora (in words) (aerobic microflora [1]; [13]): inhibits the prebiotic effect
Inhibitory effect, canine aerobic oral microflora (in words) (aerobic microflora [1]; [14]): particularly substantial
Anaerobic microflora CFU/ml, 24 hours (anaerobic microflora [2]; [5]): 1.92 log10 CFU/ml
Anaerobic microflora CFU/ml, 48 hours (anaerobic microflora [2]; [5]): 5.80 log10 CFU/ml
Anaerobic microflora CFU/ml, 24 hours (anaerobic microflora [2]; [6]): 6.30 log10 CFU/ml
Anaerobic microflora CFU/ml, 48 hours (anaerobic microflora [2]; [6]): 6.24 log10 CFU/ml
Anaerobic microflora CFU/ml, 24 hours (anaerobic microflora [2]; [7]): <3 log10 CFU/ml
Anaerobic microflora CFU/ml, 48 hours (anaerobic microflora [2]; [7]): <3 log10 CFU/ml
Anaerobic microflora CFU/ml, 24 hours (anaerobic microflora [2]; [8]): <3 log10 CFU/ml
Anaerobic microflora CFU/ml, 48 hours (anaerobic microflora [2]; [8]): 3.30 log10 CFU/ml
Anaerobic microflora CFU/ml, 24 hours (anaerobic microflora [2]; [9]): <3 log10 CFU/ml
Anaerobic microflora CFU/ml, 48 hours (anaerobic microflora [2]; [9]): <3 log10 CFU/ml
Anaerobic microflora CFU/ml, 24 hours (anaerobic microflora [2]; [10]): <3 log10 CFU/ml
Anaerobic microflora CFU/ml, 48 hours (anaerobic microflora [2]; [10]): <3 log10 CFU/ml
Anaerobic microflora CFU/ml, 24 hours (anaerobic microflora [2]; [11]): <3 log10 CFU/ml
Anaerobic microflora CFU/ml, 48 hours (anaerobic microflora [2]; [11]): <3 log10 CFU/ml
Anaerobic microflora CFU/ml, 24 hours (anaerobic microflora [2]; [12]): <3 log10 CFU/ml
Anaerobic microflora CFU/ml, 48 hours (anaerobic microflora [2]; [12]): <3 log10 CFU/ml
Inhibition of the prebiotic effect of soya hydrolysate, canine anaerobic oral microflora (in words) (anaerobic microflora [2]; [13]): inhibits the prebiotic effect
Inhibitory effect, canine anaerobic oral microflora (in words) (anaerobic microflora [2]; [14]): particularly substantial
Aerobic microflora CFU/ml, 24 hours (aerobic microflora [3]; [15]): 5.50 log10 CFU/ml
Aerobic microflora CFU/ml, 48 hours (aerobic microflora [3]; [15]): 6.90 log10 CFU/ml
Aerobic microflora CFU/ml, 24 hours (aerobic microflora [3]; [16]): 4.81 log10 CFU/ml
Aerobic microflora CFU/ml, 48 hours (aerobic microflora [3]; [16]): 6.49 log10 CFU/ml
Aerobic microflora CFU/ml, 24 hours (aerobic microflora [3]; [17]): 4.84 log10 CFU/ml
Aerobic microflora CFU/ml, 48 hours (aerobic microflora [3]; [17]): 6.83 log10 CFU/ml
Aerobic microflora CFU/ml, 24 hours (aerobic microflora [3]; [18]): <4.00 log10 CFU/ml
Aerobic microflora CFU/ml, 48 hours (aerobic microflora [3]; [18]): <4.00 log10 CFU/ml
Inhibition of the prebiotic effect of the MP9007 protein, aerobic microflora (in words) (aerobic microflora [3]; [19]): significantly inhibits
Inhibition of the prebiotic effect of soya hydrolysate, aerobic microflora (in words) (aerobic microflora [3]; [20]): virtually inhibits the entire prebiotic effect
Aerobic microflora CFU/ml, 24 hours (aerobic microflora [3]; [21]): <4.00 log10 CFU/ml
Aerobic microflora CFU/ml, 48 hours (aerobic microflora [3]; [21]): <4.00 log10 CFU/ml
Aerobic microflora CFU/ml, 24 hours (aerobic microflora [3]; [22]): <4.00 log10 CFU/ml
Aerobic microflora CFU/ml, 48 hours (aerobic microflora [3]; [22]): <4.00 log10 CFU/ml
Aerobic microflora CFU/ml, 24 hours (aerobic microflora [3]; [23]): <4.00 log10 CFU/ml
Aerobic microflora CFU/ml, 48 hours (aerobic microflora [3]; [23]): <4.00 log10 CFU/ml
Aerobic microflora CFU/ml, 24 hours (aerobic microflora [3]; [24]): <4.00 log10 CFU/ml
Aerobic microflora CFU/ml, 48 hours (aerobic microflora [3]; [24]): <4.00 log10 CFU/ml
Anaerobic microflora CFU/ml, 24 hours (anaerobic microflora [4]; [15]): 5.41 log10 CFU/ml
Anaerobic microflora CFU/ml, 48 hours (anaerobic microflora [4]; [15]): 7.04 log10 CFU/ml
Anaerobic microflora CFU/ml, 24 hours (anaerobic microflora [4]; [16]): <4.00 log10 CFU/ml
Anaerobic microflora CFU/ml, 48 hours (anaerobic microflora [4]; [16]): 6.36 log10 CFU/ml
Anaerobic microflora CFU/ml, 24 hours (anaerobic microflora [4]; [17]): 4.98 log10 CFU/ml
Anaerobic microflora CFU/ml, 48 hours (anaerobic microflora [4]; [17]): 6.82 log10 CFU/ml
Anaerobic microflora CFU/ml, 24 hours (anaerobic microflora [4]; [18]): <4.00 log10 CFU/ml
Anaerobic microflora CFU/ml, 48 hours (anaerobic microflora [4]; [18]): <4.00 log10 CFU/ml
Inhibition of the prebiotic effect of the MP9007 protein, anaerobic microflora (in words) (anaerobic microflora [4]; [19]): significantly inhibits
Inhibition of the prebiotic effect of soya hydrolysate, anaerobic microflora (in words) (anaerobic microflora [4]; [20]): virtually inhibits the entire prebiotic effect
Anaerobic microflora CFU/ml, 24 hours (anaerobic microflora [4]; [21]): <4.00 log10 CFU/ml
Anaerobic microflora CFU/ml, 48 hours (anaerobic microflora [4]; [21]): <4.00 log10 CFU/ml
Anaerobic microflora CFU/ml, 24 hours (anaerobic microflora [4]; [22]): <4.00 log10 CFU/ml
Anaerobic microflora CFU/ml, 48 hours (anaerobic microflora [4]; [22]): <4.00 log10 CFU/ml
Anaerobic microflora CFU/ml, 24 hours (anaerobic microflora [4]; [23]): <4.00 log10 CFU/ml
Anaerobic microflora CFU/ml, 48 hours (anaerobic microflora [4]; [23]): <4.00 log10 CFU/ml
Anaerobic microflora CFU/ml, 24 hours (anaerobic microflora [4]; [24]): <4.00 log10 CFU/ml
Anaerobic microflora CFU/ml, 48 hours (anaerobic microflora [4]; [24]): <4.00 log10 CFU/ml
